Measured values as given in patent US11242346B2, “Mechanistic target of rapamycin signaling pathway inhibitors and therapeutic applications thereof” (SUZHOU KINTOR PHARMACEUTICALS, INC., priority 2016, dated 2022).
Blank lines part the entries; values can stand above or below the compound they belong to.

Assays:
mTOR (FRAP1) = mTOR (FRAP1) (Homo sapiens, UniProt P42345); experiment: SelectScreen Profiling, Z'-LYTE kinase assay, mTOR (FRAP1); type: biochemical; conditions: 0.1 μM compound, ATP at Km, read-out: mTOR inh% @0.1 μM
Source text: (§1) Some of the example compounds were submitted to Life Technologies Corporation SelectScreen® Profiling Service to test their potency in inhibiting the kinase catalytic activities of mTOR, PI3Kα, VEGF2, FGFR1, HER1 (EGFR) and HER2. A concentration of ATP at the Km of the corresponding kinase was used for all assays. The mTOR (FRAP1), VEGF2, FGFR1, HER1 (EGFR) and HER2 assays used Z′-LYTE® technology. The PI3Kα assay used Adapta® technology. The symbol “inh %” as used herein generally refers to inhibition percentage.

[1] = test system: mammalian tumor cell lines such as PC-3, LNCAP, U87, Huh-7, HepG2 and MDA-MB-468; experiment: Cell proliferation/survival MTT assay in tumor cell lines; type: cell-based; conditions: 5 days (120 h) culture; cell line not specified; read-out: IC50, inhibition of tumor cell growth (MTT)
Protocol: The cytotoxic or cytostatic activity of Formula I-III exemplary compounds was measured by establishing proliferating mammalian tumor cell lines such as PC-3, LNCAP, U87, Huh-7, HepG2 and MDA-MB-468 in a cell culture medium, adding a test compound, culturing the cells for a period of 5 days by measuring cell viability via MTT assays. Dose response data were obtained for each test compound and the degree of inhibition of tumor cell growth was expressed as an IC50 value. […] For example. For example, compounds of example 14, 15, 46,29, 45, 49, 122, 88, 54, 55, 58, 59, 63, 64, 66, 67, 68, 113, 86, 90.
PC-3 (or U87) cells were seeded in 96-well plates at low density (at 2,000 cells per well) in media supplemented with 10% FBS (growth media) and transferred to serum-free media (1% FBS) after 24 h. Designated concentrations of drug were added to each well. The cells were incubated for 120 h. At the end of drug exposure, 20 μL/well of MTT solution was added. After 4 h at 37° C. in a humidified 5% CO2 atmosphere, the absorbance at 490 nm was recorded by using a microplate reader. IC50 was calculated using GraphPad Prism version 5 for Windows. The curves were fit using a nonlinear regression model with a log (inhibitor) versus response formula.

VEGF2 = VEGF2 (Homo sapiens, UniProt P35968); experiment: SelectScreen Profiling, Z'-LYTE kinase assay, VEGF2; type: biochemical; conditions: 1 μM compound, ATP at Km, read-out: VEGF 2 inh % @1 μM
Source text: as §1

FGFR1 = FGFR1 (Homo sapiens, UniProt P11362); experiment: SelectScreen Profiling, Z'-LYTE kinase assay, FGFR1; type: biochemical; conditions: 1 μM compound, ATP at Km, read-out: FGFR 1 inh % @1 μM
FGFR1, sequence (P11362 22-822): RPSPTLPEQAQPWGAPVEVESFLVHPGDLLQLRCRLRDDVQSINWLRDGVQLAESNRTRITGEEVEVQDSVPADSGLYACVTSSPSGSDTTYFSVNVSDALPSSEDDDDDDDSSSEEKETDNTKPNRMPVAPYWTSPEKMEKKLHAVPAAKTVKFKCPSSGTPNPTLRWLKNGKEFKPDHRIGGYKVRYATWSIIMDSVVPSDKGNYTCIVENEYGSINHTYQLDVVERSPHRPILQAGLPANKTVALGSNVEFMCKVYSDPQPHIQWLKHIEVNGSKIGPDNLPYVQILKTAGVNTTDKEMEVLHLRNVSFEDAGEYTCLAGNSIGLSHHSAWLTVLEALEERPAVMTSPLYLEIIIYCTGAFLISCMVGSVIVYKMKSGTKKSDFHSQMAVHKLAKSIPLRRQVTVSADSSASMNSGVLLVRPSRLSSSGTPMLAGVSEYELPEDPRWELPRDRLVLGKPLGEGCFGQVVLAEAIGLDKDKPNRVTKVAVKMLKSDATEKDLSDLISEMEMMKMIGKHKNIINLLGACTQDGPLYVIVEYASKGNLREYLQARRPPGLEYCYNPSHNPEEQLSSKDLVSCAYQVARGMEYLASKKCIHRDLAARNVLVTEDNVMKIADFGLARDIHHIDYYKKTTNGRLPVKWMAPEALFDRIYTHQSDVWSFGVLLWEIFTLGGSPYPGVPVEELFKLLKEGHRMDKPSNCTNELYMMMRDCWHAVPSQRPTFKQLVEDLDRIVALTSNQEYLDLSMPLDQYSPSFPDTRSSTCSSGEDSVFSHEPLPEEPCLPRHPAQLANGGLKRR
Source text: as §1

HER1 (EGFR) = HER1 (EGFR) (Homo sapiens, UniProt P00533); experiment: SelectScreen Profiling, Z'-LYTE kinase assay, HER1 (EGFR); type: biochemical; conditions: 1 μM compound, ATP at Km, read-out: HER1 inh % @1 μM
HER1 (EGFR), sequence (P00533 25-1210): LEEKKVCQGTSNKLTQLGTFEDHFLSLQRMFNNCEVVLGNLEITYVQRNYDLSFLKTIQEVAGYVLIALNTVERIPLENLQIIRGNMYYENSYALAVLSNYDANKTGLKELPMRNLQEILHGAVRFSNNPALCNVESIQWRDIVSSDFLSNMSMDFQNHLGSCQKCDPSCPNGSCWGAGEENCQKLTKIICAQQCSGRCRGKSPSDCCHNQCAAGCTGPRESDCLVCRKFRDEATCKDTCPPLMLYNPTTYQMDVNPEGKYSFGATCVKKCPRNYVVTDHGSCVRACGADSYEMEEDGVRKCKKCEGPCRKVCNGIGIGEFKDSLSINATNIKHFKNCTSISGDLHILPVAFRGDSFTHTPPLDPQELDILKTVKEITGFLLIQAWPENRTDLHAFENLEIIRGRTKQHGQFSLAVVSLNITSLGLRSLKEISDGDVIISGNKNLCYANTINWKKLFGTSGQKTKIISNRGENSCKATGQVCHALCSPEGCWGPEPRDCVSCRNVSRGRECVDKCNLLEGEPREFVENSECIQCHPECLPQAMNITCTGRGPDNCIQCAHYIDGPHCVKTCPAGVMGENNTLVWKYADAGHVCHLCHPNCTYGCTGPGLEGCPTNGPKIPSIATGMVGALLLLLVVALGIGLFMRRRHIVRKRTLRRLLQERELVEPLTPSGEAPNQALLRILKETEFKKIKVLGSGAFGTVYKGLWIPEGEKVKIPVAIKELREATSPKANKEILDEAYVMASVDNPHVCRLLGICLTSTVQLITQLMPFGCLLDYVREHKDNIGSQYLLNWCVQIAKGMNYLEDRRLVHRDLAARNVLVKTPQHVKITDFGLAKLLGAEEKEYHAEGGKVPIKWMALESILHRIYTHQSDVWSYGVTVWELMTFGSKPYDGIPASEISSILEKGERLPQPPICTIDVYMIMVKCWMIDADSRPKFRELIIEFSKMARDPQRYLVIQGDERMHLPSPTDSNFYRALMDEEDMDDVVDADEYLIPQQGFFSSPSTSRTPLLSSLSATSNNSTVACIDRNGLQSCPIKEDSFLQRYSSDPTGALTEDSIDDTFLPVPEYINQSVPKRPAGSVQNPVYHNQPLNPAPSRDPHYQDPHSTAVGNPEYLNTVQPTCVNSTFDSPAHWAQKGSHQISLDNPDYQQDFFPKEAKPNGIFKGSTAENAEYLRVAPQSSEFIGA
Source text: as §1

HER2 = HER2 (Homo sapiens, UniProt P04626); experiment: SelectScreen Profiling, Z'-LYTE kinase assay, HER2; type: biochemical; conditions: 1 μM compound, ATP at Km, read-out: HER2 inh % @1 μM
HER2, sequence (P04626 23-1255): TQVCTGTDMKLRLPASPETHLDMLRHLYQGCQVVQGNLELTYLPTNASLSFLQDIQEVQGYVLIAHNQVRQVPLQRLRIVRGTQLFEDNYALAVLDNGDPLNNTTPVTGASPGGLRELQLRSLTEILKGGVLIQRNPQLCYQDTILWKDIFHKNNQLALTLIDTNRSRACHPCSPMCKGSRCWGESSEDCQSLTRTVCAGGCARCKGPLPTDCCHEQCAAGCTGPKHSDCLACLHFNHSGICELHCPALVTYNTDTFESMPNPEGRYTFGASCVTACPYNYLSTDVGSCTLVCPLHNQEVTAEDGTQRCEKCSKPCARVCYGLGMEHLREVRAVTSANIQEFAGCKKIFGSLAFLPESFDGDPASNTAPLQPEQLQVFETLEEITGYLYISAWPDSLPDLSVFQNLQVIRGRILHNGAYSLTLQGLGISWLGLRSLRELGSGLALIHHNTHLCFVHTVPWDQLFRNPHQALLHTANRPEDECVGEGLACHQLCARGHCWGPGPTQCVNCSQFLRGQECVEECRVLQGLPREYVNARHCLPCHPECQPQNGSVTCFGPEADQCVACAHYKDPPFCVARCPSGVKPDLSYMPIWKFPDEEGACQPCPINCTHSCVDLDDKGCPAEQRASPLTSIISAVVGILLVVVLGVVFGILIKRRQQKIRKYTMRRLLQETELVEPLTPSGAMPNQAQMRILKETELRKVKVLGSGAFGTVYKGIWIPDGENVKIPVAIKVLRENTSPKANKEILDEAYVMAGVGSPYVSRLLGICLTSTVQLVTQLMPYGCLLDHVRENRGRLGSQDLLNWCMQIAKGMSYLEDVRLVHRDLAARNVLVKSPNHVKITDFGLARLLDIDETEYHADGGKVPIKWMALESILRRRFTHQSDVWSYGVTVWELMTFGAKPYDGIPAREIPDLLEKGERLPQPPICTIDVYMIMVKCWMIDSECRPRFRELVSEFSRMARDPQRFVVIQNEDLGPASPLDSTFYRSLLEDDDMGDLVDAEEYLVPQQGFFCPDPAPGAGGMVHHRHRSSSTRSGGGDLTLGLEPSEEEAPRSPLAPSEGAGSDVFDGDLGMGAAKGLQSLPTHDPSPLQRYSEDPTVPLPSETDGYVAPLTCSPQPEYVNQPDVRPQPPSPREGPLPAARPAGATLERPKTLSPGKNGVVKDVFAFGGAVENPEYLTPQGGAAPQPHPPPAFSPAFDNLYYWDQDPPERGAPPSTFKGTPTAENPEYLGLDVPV
Source text: as §1

[2] = Metabolic stability in human liver microsome (HLM); type: in vitro ADME; conditions: incubation with human liver microsome for 60 min
Protocol: (§2) Active mTOR inhibitors in enzymatic and/or cell-based assays herein were evaluated for pharmacokinetic properties. Preferable compounds are with pharmacokinetic properties of low clearance, long half-life and/or good oral bioavailability (Fpo). In vitro, selected example compounds were evaluated for metabolic stability by incubating with human liver microsome (HLM) for 60 min. Compounds that were metabolized slower (i.e. higher % remaining) are preferred. […] The more metabolic stable example compounds in the HLM assay were further evaluated for pharmacokinetic properties in vivo. In a representative experiment, selected example compounds were dosed to rats intravenously (IV, 5 mg/kg, 30% PEG400+30% PG+1% DMSO in saline) and orally (PO, 10 mg/kg, 2.4% DMSO+0.1% Tween80 in 0.5% CMC-Na), rat blood samples were taken at designed time points after dosing and analyzed for tested drug concentrations using LC-MS/MS. Pharmacokinetic parameters were derived from the time curve of drug concentrations.

[3] = Rat pharmacokinetic study (IV and PO); type: in vivo
Protocol: as §2

PI3Kα = PI3Kα (Homo sapiens, UniProt P42336); experiment: SelectScreen Profiling, Adapta kinase assay, PI3Kα; type: biochemical; conditions: 0.1 μM compound, ATP at Km, read-out: PI3Kα inh % @0.1 μM
PI3Kα, sequence (P42336 whole entry): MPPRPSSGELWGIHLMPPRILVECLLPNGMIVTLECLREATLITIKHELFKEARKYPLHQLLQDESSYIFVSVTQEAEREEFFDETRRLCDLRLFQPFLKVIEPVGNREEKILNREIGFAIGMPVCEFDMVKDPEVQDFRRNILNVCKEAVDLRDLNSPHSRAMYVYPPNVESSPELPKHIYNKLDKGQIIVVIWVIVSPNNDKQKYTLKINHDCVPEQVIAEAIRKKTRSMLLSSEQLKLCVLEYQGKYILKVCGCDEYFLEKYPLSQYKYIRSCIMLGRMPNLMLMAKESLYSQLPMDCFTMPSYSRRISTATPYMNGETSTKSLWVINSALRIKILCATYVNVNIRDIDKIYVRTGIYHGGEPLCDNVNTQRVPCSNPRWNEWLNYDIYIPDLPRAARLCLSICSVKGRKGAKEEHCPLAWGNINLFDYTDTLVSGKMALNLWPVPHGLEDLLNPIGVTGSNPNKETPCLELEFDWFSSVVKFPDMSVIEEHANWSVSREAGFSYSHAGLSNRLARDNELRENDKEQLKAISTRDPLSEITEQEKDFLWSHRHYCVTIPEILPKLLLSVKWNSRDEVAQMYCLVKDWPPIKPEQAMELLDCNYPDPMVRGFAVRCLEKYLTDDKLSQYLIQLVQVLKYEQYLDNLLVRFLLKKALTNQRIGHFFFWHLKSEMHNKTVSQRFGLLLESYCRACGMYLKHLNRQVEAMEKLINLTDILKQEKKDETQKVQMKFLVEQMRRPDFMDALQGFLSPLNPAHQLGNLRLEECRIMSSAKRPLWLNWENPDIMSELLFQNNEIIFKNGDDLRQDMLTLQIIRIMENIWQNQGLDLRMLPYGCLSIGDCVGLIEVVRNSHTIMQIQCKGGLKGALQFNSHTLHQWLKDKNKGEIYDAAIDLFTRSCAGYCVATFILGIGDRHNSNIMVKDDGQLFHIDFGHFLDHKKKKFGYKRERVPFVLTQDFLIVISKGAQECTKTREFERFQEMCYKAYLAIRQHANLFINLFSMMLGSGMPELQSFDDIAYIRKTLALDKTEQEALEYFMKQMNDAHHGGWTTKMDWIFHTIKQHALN
PI3Kα, sequence (P27986 whole entry partner): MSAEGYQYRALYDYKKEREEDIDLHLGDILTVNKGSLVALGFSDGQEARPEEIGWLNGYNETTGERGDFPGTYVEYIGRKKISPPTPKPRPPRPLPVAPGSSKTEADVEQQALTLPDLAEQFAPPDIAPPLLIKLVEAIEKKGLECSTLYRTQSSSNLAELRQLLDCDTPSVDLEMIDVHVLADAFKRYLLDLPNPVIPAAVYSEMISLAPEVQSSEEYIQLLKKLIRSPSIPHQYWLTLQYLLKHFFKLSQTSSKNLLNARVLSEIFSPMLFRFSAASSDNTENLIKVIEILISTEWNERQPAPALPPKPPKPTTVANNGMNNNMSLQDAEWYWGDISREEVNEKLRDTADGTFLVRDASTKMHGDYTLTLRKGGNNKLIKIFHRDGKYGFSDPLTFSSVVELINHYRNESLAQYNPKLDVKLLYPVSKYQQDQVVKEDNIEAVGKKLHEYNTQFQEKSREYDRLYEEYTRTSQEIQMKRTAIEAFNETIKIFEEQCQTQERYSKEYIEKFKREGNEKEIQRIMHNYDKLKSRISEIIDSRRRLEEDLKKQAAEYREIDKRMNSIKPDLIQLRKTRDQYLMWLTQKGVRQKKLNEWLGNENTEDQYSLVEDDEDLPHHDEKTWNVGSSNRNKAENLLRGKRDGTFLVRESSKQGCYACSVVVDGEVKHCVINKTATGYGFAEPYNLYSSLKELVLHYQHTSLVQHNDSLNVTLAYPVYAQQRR

inhibition at 0.1 µM (mTOR (FRAP1)): 82%
Structure (SMILES): CN(C)C1CN(C(=O)c2ccc(NC(=O)Nc3ccc(-c4nc(N5CCOCC5)c5cccn5n4)cc3)cc2)C1 [Example 86]
IC50 [1]: < 500 nM

inhibition at 0.1 µM (mTOR (FRAP1)): 93% | inhibition at 1 µM (VEGF2): 10% | inhibition at 1 µM (FGFR1): 7% | inhibition at 1 µM (HER1 (EGFR)): 2% | inhibition at 1 µM (HER2): -2%
Structure (SMILES): CN1CCCN(C(=O)c2ccc(NC(=O)Nc3ccc(-c4nc(N5CCOCC5)c5cccn5n4)cc3)cc2)CC1 [Example 59]
IC50 [1]: < 500 nM

inhibition at 0.1 µM (mTOR (FRAP1)): 71%
Structure (SMILES): CNC(=O)c1ccc(NC(=O)Nc2ccc(-c3nc(N4CCOCC4)c4cccn4n3)cc2)cc1F [Example 61]

inhibition at 0.1 µM (mTOR (FRAP1)): 62% | metabolic stability in HLM [2]: metabolically stable
Structure (SMILES): CN(C)C1CCN(C(=O)c2ccc(NC(=O)Nc3ccc(-c4nc(N5CCOCC5)c5ccc(C(F)(F)F)n5n4)cc3)cc2)CC1 [Example 64]
IC50 [1]: < 500 nM

inhibition at 0.1 µM (mTOR (FRAP1)): 97% | inhibition at 1 µM (VEGF2): 10% | inhibition at 1 µM (FGFR1): 4% | inhibition at 1 µM (HER1 (EGFR)): 1% | inhibition at 1 µM (HER2): -5%
Structure (SMILES): CN(C)[C@@H]1CCN(C(=O)c2ccc(NC(=O)Nc3ccc(-c4nc(N5CCOCC5)c5cccn5n4)cc3)cc2)C1 [Example 58]
IC50 [1]: < 500 nM

inhibition at 0.1 µM (mTOR (FRAP1)): 53% | inhibition at 0.1 µM (PI3Kα): 10%
Structure (SMILES): O=C(Nc1ccc(-c2nc(N3CCOCC3)c3ccc(C(F)(F)F)n3n2)cc1)Nc1cccnc1 [Example 62]

metabolic stability in HLM [2]: metabolically stable
Structure (SMILES): O=C(Nc1ccc(-c2nc(N3CCOCC3)c3cccn3n2)cc1)Nc1ccc(CO)nc1 [Example 96]

inhibition at 0.1 µM (PI3Kα): 25%
Structure (SMILES): C[C@@H]1COCCN1c1nc(-c2ccc(NC(=O)Nc3cccnc3)cc2)nn2cccc12 [Example 17]

inhibition at 0.1 µM (mTOR (FRAP1)): 98% | inhibition at 0.1 µM (PI3Kα): 0% | inhibition at 1 µM (VEGF2): 10% | inhibition at 1 µM (FGFR1): 4% | inhibition at 1 µM (HER1 (EGFR)): -2% | inhibition at 1 µM (HER2): -9%
Structure (SMILES): CN(C)CCNC(=O)c1ccc(NC(=O)Nc2ccc(-c3nc(N4CCOCC4)c4cccn4n3)cc2)cc1 [Example 45]
IC50 [1]: < 500 nM

Second part, the compound before the results:

Structure (SMILES): CS(=O)(=O)N1CCN(Cc2cc3nc(-c4cccc5[nH]ncc45)nc(N4CCOCC4)c3s2)CC1 [GDC0941, reference compound]
inhibition at 0.1 µM (mTOR (FRAP1)): 6%

Structure (SMILES): CN1CCN(CCNC(=O)c2ccc(NC(=O)Nc3ccc(-c4nc(N5CCOCC5)c5cccn5n4)cc3)cc2)CC1 [Example 49]
inhibition at 0.1 µM (mTOR (FRAP1)): 88% | IC50 [1]: < 500 nM

Structure (SMILES): O=C(NCCO)Nc1ccc(-c2nc(N3C[C@H]4CC[C@@H](C3)O4)c3cccn3n2)cc1 [Example 127]
metabolic stability in HLM [2]: metabolically stable | CL ([3]; PO 10 mg/kg): 112.9 mL/min/kg | AUC(0-t) ([3]; blood, IV 5 mg/kg): 3420 ng·h/mL | Cmax ([3]; blood, IV 5 mg/kg): 3380 ng/mL | MRT ([3]; blood, IV 5 mg/kg): 1.3 h | clearance ([3]; blood, IV 5 mg/kg): 24.4 mL/min/kg | half-life ([3]; blood, IV 5 mg/kg): 1.47 h | AUC(0-t) ([3]; blood, PO 10 mg/kg): 1400 ng·h/mL | Cmax ([3]; blood, PO 10 mg/kg): 296 ng/mL | MRT ([3]; blood, PO 10 mg/kg): 5.11 h | Tmax ([3]; blood, PO 10 mg/kg): 0.417 h | half-life ([3]; blood, PO 10 mg/kg): 3.29 h | bioavailability ([3]; blood, PO 10 mg/kg vs IV 5 mg/kg, read-out: Fpo (oral bioavailability)): 22%

Structure (SMILES): CC(C)(C)C(=O)OCCNC(=O)Nc1ccc(-c2nc(N3C[C@H]4CC[C@@H](C3)O4)c3cccn3n2)cc1 [Example 133]
inhibition at 0.1 µM (mTOR (FRAP1)): 90% | inhibition at 1 µM (VEGF2): 9% | inhibition at 1 µM (FGFR1): 4% | inhibition at 1 µM (HER1 (EGFR)): 1% | inhibition at 1 µM (HER2): 5%

Structure (SMILES): CCNC(=O)Nc1ccc(-c2nc(N3CCOC[C@H]3C)c3cccn3n2)cc1 [Example 4]
inhibition at 0.1 µM (mTOR (FRAP1)): 72% | inhibition at 0.1 µM (PI3Kα): 10%

Structure (SMILES): CN(C)C1CCN(C(=O)c2ccc(NC(=O)Nc3ccc(-c4nc(N5CCOCC5)c5ccc(C(C)(C)O)n5n4)cc3)cc2)CC1 [Example 90]
IC50 [1]: < 500 nM

Structure (SMILES): O=C(Nc1ccncc1)Nc1ccc(-c2nc(N3CCOCC3)c3cccn3n2)cc1 [Example 18]
inhibition at 0.1 µM (PI3Kα): -13%
